Patent US8252737B2, “Antimicrobial peptides and methods of use” (priority 2004, dated 2012)

How the values were obtained:
gram-positive bacteria = system: gram-positive bacteria
Procedure, shortened: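 Microtiter dilution in LB no-salt or Mueller-Hinton medium, with BHI for Pseudomonas aeruginosa clinical isolates (final inoculum 1×10^6 CFU/ml). Plates were incubated 24 hours at 37° C. MIC was the lowest peptide concentration inhibiting growth.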

human erythrocytes = assay: Hemolytic activity (MHC), Protocol A, 12 hours; conditions: for minimal hemolytic concentration (MHC): incubation for 12 hours at 37° C. (Tables 7 and 8); for MHC: minimal hemolytic concentration on human red blood cells (hRBC), Table 9
Procedure, shortened: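 Twofold peptide dilutions incubated with 1% human erythrocytes in phosphate-buffered saline at 37 °C for 12 h; hemoglobin release read spectrophotometrically at 562 nm, or at 570 nm in a repeat. Hemolytic titer taken as the highest 2-fold dilution still releasing hemoglobin, versus peptide-free erythrocytes.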

[1] = RP-HPLC temperature profiling (hydrophobicity and self-association/dimerization parameter PA); assay type: physicochemical; conditions: for tR (min) 5° C.: RP-HPLC retention time at 5° C. during temperature profiling (measure of hydrophobicity); for tR (min) 80° C.: RP-HPLC retention time at 80° C. during temperature profiling; for tR (min) Max: maximal RP-HPLC retention time during temperature profiling 5-80° C.; for PA (min) association parameter: maximal retention time difference relative to control peptide C within 5-80° C.; for ΔtR (X-NVL) (min) 5° C.: retention time difference relative to native peptide V681 (NVL) at 5° C.; for ΔtR (X-NVL) (min) 5° C. / ΔtR (X-NVL) (min) 80° C.: relative hydrophobicity; for ΔtR (X-NVL) (min) 80° C.: retention time difference relative to native peptide V681 (NVL) at 80° C.
Procedure, shortened: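 RP-HPLC retention times recorded over temperature profiling from 5°C to 80°C, with retention relative to native V681 at each limit used as hydrophobicity. Self-association parameter PA defined as the maximal change in retention time from 5°C, after subtracting that of monomeric random-coil control peptide C.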

gram-negative bacteria = assay: MIC, microtiter dilution, Gram-negative bacteria (geometric mean of 6 strains); assay type: cell-based; conditions: geometric mean MIC, Table 9
Procedure, shortened: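 Microtiter broth dilution in LB no-salt or Mueller-Hinton broth (brain heart infusion for P. aeruginosa clinical isolates, inoculum 1×10^6 CFU/ml); overnight 37° C. cultures diluted, plates incubated 37° C. 24 h. MIC is lowest peptide concentration inhibiting growth; value is geometric mean over 6 strains.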

Row | Substance | MIC (μg/ml) Gram-positive (gram-positive bacteria) | minimal hemolytic concentration (MHC) (human erythrocytes) | MHC (human erythrocytes) | tR (min) 5° C. [1] | tR (min) 80° C. [1] | tR (min) Max [1] | PA (min) association parameter [1] | ΔtR (X-NVL) (min) 5° C. ([1]; non-polar face substitutions) | ΔtR (X-NVL) (min) 80° C. ([1]; non-polar face substitutions) | MIC (μg/ml) Gram-negative (gram-negative bacteria) | decrease in hydrophobicity relative to NVL (V681) ([1]; RP-HPLC retention time difference at 80° C., non-polar face substitutions)
1 | Ac-KWKSFLKTFKSAGKTVLHTALKAISS-NH2 [NG] | 7.4 µg/mL | 125 µg/mL | 125.0 µg/mL | 39.96 min | 36.74 min | 40.22 min | 1.64 min | -8.14 min | -9.09 min | 4.1 µg/mL | 
2 | Ac-KWKSFLKTFKSASKTVLHTALKAISS-NH2 [NSL] | 7.4 µg/mL | 125 µg/mL | 125.0 µg/mL | 40.72 min | 37.62 min | 41.08 min | 1.82 min | -7.38 min | -8.21 min | 4.2 µg/mL | -8.21 min
